{"source": "patent US20240075000A1", "about": "(priority 2021, published 2024)", "key": {"patient": {"test_system": "patient", "experiment": "one-year high-dose tolerability in a patient", "assay_type": "in vivo, human", "details": "up to 6,000 mg/day for one year in a patient"}, "[1]": {"test_system": "post-COVID-19 fatigue patient", "experiment": "post-COVID-19 fatigue case (Example 5)", "assay_type": "in vivo, human", "details": "500 mg BID", "procedure": "Afterwards, although their fever was resolved, they experienced fatigue so extreme that it was difficult for them to walk to the bathroom. They started taking 500 mg anhydrous enol-oxaloacetate BID for 45 days. Within 3 days 80% of fatigue was resolved. After 30 days, 100% of their fatigue was resolved."}, "[2]": {"test_system": "Amyotrophic Lateral Sclerosis (ALS) patients", "experiment": "Phase 1 clinical trial in ALS, patient testimonials", "assay_type": "in vivo, human", "details": "1000 mg BID, dose taken without food; went away on eating", "procedure": "A Phase 1 clinical trial was conducted with the Inventor supplying the anhydrous enol-oxaloacetate drug. Typically, Phase 1 clinical trials focus on the safety of a proposed drug, but patient response efficacy is also important and is noted. […] My name is […]. I was diagnosed with Bulbar onset ALS by Dr. Jawdat at the KU Medical Center in Kansas City KS on Oct. 14, 2020. […] I have muscle fasciculations pretty much all over my body at times and most are constant. The first 4 to 5 days taking the supplement, I did feel like they intensified an hour to two hours after taking it, and it lasted for approximately an hour or two. After those 4 or 5 days, it went back to the normal strength. At approximately the third week of taking the supplement I began to notice my tongue movement had better range of motion. I could see it pushing out the side of my cheek, I couldn't get it over there before. I also have felt like my left hand has gained a little strength and grip and I feel like I have a bit more strength in my left wrist. I do however feel like most things are still declining, but with such a short time of trying the supplement, I want to keep taking it to see if things can keep improving/changing. I am currently not on any ALS medications but do take some vitamins. • Patient 2. My spouse, Nathan, was part of a study with oxaloacetate for ALS. […]"}, "[3]": {"test_system": "post-COVID-19 fatigue patient", "experiment": "post-COVID-19 fatigue case, physician (Example 3)", "details": "500 mg BID; for Visual Fatigue Score: baseline 3, range 0 worst to 10 no fatigue; for Chalder Fatigue Score: range 33 worst to 0 no fatigue; for Fatigue Severity Score: baseline 54, range 63 worst to 9 no fatigue; for PROMIS Fatigue 7a: range 35 worst to 7 no fatigue"}}, "note": "Counter-ions that a name gives are not always drawn.", "data": [{"smiles": "O=C(O)CC(=O)C(=O)O", "note": "[anhydrous enol-oxaloacetate, hydroxy fumarate]", "values": [{"measurement": "side effects", "setting": "patient", "result": "no negative side effects"}, {"measurement": "fatigue resolved", "setting": "[1]; after 30 days", "result": 100, "unit": "%"}, {"measurement": "fatigue resolved", "setting": "[1]; within 3 days", "result": 80, "unit": "%"}, {"measurement": "side effect noticed by the patient", "setting": "[2]", "result": "upset stomach"}, {"measurement": "Visual Fatigue Score", "setting": "[3]; Final, Dec. 3, 2020", "result": 10}, {"measurement": "Chalder Fatigue Score", "setting": "[3]; Final, Dec. 3, 2020, baseline 22", "result": 2}, {"measurement": "Fatigue Severity Score", "setting": "[3]; Final, Dec. 3, 2020", "result": 20}, {"measurement": "PROMIS Fatigue 7a", "setting": "[3]; Final, Dec. 3, 2020", "result": 11}, {"measurement": "Visual Fatigue Score", "setting": "[3]; Nov. 3, 2020", "result": 4}, {"measurement": "Fatigue Severity Score", "setting": "[3]; Nov. 3, 2020", "result": 54}, {"measurement": "PROMIS Fatigue 7a", "setting": "[3]; Nov. 3, 2020, baseline N/A", "result": 25}, {"measurement": "Chalder Fatigue Score", "setting": "[3]; Nov. 3, 2020, baseline Oct. 14, 2020 22", "result": 16}]}]}
